Assay: cn = amount concentration of the nth substance listed, in mol/dm3
Conditions: 101 kPa, Liquid, Advanced Conductivity Orion 162A

C[N+](C)(C)C.O=C([O-])C(F)(F)C(F)(F)C(F)(F)C(F)(F)C(F)(F)C(F)(F)C(F)(F)F [tetramethylammonium perfluorooctanoate] + O
Conditions	electrical conductivity [S/m]
288.15 K, c1 = 0.001316	0.00725
288.15 K, c1 = 0.002597	0.0135
288.15 K, c1 = 0.003846	0.01958
288.15 K, c1 = 0.005063	0.0253
288.15 K, c1 = 0.00625	0.0306
288.15 K, c1 = 0.007407	0.0357
288.15 K, c1 = 0.008536	0.0405
288.15 K, c1 = 0.009638	0.0451
288.15 K, c1 = 0.01071	0.0494
288.15 K, c1 = 0.01176	0.0536
288.15 K, c1 = 0.01279	0.0574
288.15 K, c1 = 0.01379	0.0598
288.15 K, c1 = 0.01477	0.0611
288.15 K, c1 = 0.01573	0.0622
288.15 K, c1 = 0.01704	0.0637
288.15 K, c1 = 0.01848	0.0656
288.15 K, c1 = 0.02004	0.0675
288.15 K, c1 = 0.02171	0.0693
288.15 K, c1 = 0.02331	0.0714
288.15 K, c1 = 0.02485	0.0732
293.15 K, c1 = 0.001316	0.00808
293.15 K, c1 = 0.002597	0.01512
293.15 K, c1 = 0.003846	0.0218
293.15 K, c1 = 0.005063	0.0282
293.15 K, c1 = 0.00625	0.0341
293.15 K, c1 = 0.007407	0.0401
293.15 K, c1 = 0.008537	0.0455
293.15 K, c1 = 0.009638	0.0503
293.15 K, c1 = 0.01071	0.0551
293.15 K, c1 = 0.01176	0.0597
293.15 K, c1 = 0.01279	0.0634
293.15 K, c1 = 0.01379	0.0657
293.15 K, c1 = 0.01477	0.0675
293.15 K, c1 = 0.01573	0.0691
293.15 K, c1 = 0.01667	0.0706
293.15 K, c1 = 0.01803	0.0726
293.15 K, c1 = 0.01935	0.0745
293.15 K, c1 = 0.02063	0.0764
293.15 K, c1 = 0.02187	0.0781
293.15 K, c1 = 0.02347	0.0803
293.15 K, c1 = 0.025	0.0825
298.15 K, c1 = 0.001234	0.0087
298.15 K, c1 = 0.002439	0.01642
298.15 K, c1 = 0.003614	0.0236
298.15 K, c1 = 0.004762	0.0304
298.15 K, c1 = 0.005882	0.0371
298.15 K, c1 = 0.006977	0.0435
298.15 K, c1 = 0.008046	0.0498
298.15 K, c1 = 0.009091	0.0554
298.15 K, c1 = 0.01011	0.0612
298.15 K, c1 = 0.01111	0.0661
298.15 K, c1 = 0.01209	0.0713
298.15 K, c1 = 0.01304	0.0744
298.15 K, c1 = 0.01398	0.0766
298.15 K, c1 = 0.01489	0.0785
298.15 K, c1 = 0.01579	0.0801
298.15 K, c1 = 0.0171	0.0823
298.15 K, c1 = 0.01837	0.0844
298.15 K, c1 = 0.02	0.087
298.15 K, c1 = 0.02157	0.0895
298.15 K, c1 = 0.02308	0.092
298.15 K, c1 = 0.02453	0.0944
298.15 K, c1 = 0.02593	0.0968
303.15 K, c1 = 0.001316	0.00997
303.15 K, c1 = 0.002597	0.01874
303.15 K, c1 = 0.003846	0.0272
303.15 K, c1 = 0.005063	0.0352
303.15 K, c1 = 0.00625	0.0427
303.15 K, c1 = 0.007407	0.0498
303.15 K, c1 = 0.008537	0.0566
303.15 K, c1 = 0.009638	0.063
303.15 K, c1 = 0.01071	0.0691
303.15 K, c1 = 0.01176	0.0748
303.15 K, c1 = 0.01279	0.0795
303.15 K, c1 = 0.01379	0.0823
303.15 K, c1 = 0.01477	0.0844
303.15 K, c1 = 0.01573	0.0864
303.15 K, c1 = 0.01667	0.0884
303.15 K, c1 = 0.01803	0.0912
303.15 K, c1 = 0.01935	0.0938
303.15 K, c1 = 0.02063	0.0964
303.15 K, c1 = 0.02187	0.0988
303.15 K, c1 = 0.02347	0.1017
303.15 K, c1 = 0.025	0.1045
308.15 K, c1 = 0.001316	0.01109
308.15 K, c1 = 0.002597	0.0209
308.15 K, c1 = 0.003846	0.0302
308.15 K, c1 = 0.005063	0.0388
308.15 K, c1 = 0.00625	0.0475
308.15 K, c1 = 0.007407	0.0554
308.15 K, c1 = 0.008536	0.0626
308.15 K, c1 = 0.009638	0.07
308.15 K, c1 = 0.01071	0.077
308.15 K, c1 = 0.01176	0.0828
308.15 K, c1 = 0.01279	0.0888
308.15 K, c1 = 0.01379	0.0918
308.15 K, c1 = 0.01477	0.095
308.15 K, c1 = 0.01573	0.0969
308.15 K, c1 = 0.01667	0.0996
308.15 K, c1 = 0.01758	0.101
308.15 K, c1 = 0.01848	0.1029
308.15 K, c1 = 0.02021	0.1067
308.15 K, c1 = 0.02188	0.1102
308.15 K, c1 = 0.02347	0.1136
308.15 K, c1 = 0.025	0.1168
308.15 K, c1 = 0.02647	0.1208
313.15 K, c1 = 0.001316	0.01241
313.15 K, c1 = 0.002597	0.0231
313.15 K, c1 = 0.003846	0.0333
313.15 K, c1 = 0.005063	0.0428
313.15 K, c1 = 0.00625	0.0521
313.15 K, c1 = 0.007407	0.0608
313.15 K, c1 = 0.008537	0.0687
313.15 K, c1 = 0.009638	0.0765
313.15 K, c1 = 0.01071	0.0841
313.15 K, c1 = 0.01176	0.0905
313.15 K, c1 = 0.01279	0.0971
313.15 K, c1 = 0.01379	0.1009
313.15 K, c1 = 0.01477	0.1039
313.15 K, c1 = 0.01573	0.1067
313.15 K, c1 = 0.01667	0.1091
313.15 K, c1 = 0.01803	0.1125
313.15 K, c1 = 0.01935	0.1158
313.15 K, c1 = 0.02063	0.119
313.15 K, c1 = 0.02187	0.122
313.15 K, c1 = 0.02347	0.1258
313.15 K, c1 = 0.025	0.1294
318.15 K, c1 = 0.001316	0.01322
318.15 K, c1 = 0.002597	0.0253
318.15 K, c1 = 0.003846	0.0367
318.15 K, c1 = 0.005063	0.0466
318.15 K, c1 = 0.00625	0.0564
318.15 K, c1 = 0.007407	0.0659
318.15 K, c1 = 0.008536	0.0745
318.15 K, c1 = 0.009638	0.0838
318.15 K, c1 = 0.01071	0.0921
318.15 K, c1 = 0.01176	0.0993
318.15 K, c1 = 0.01279	0.1064
318.15 K, c1 = 0.01379	0.1119
318.15 K, c1 = 0.01477	0.1156
318.15 K, c1 = 0.01573	0.1188
318.15 K, c1 = 0.01667	0.1218
318.15 K, c1 = 0.01803	0.1263
318.15 K, c1 = 0.01935	0.1307
318.15 K, c1 = 0.02105	0.1349
318.15 K, c1 = 0.02268	0.14
318.15 K, c1 = 0.02424	0.1434
318.15 K, c1 = 0.02574	0.1473
